The results in this text go back to PubChem BioAssay (NCI).

Among the test systems are SNB-19 CNS; OVCAR-5 ovarian; HOP-62 NSCLC; MDA-MB-231 breast; SR leukemia; UO-31 renal; EKVX NSCLC; MDA-MB-435; SF-539 CNS; ACHN renal; RXF 393 renal; RPMI-8226 leukemia; MDA-N; MCF7 breast; CCRF-CEM leukemia; NCI-H460 lung; OVCAR-4 ovarian; HCT-116 colon; OVCAR-3 ovarian; SK-OV-3 ovarian.
Holding throughout (assay): NCI-60 cell line screen, 48 h

The structures appear in SMILES notation.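 Cells were grown in 96-well plates and exposed to each compound for 48 hours at five concentrations; endpoints were interpolated linearly between bracketing concentrations, or set to the highest concentration if not reached. TGI: concentration producing complete growth inhibition.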 Some results are limits rather than exact numbers.

Consider `Cc1sc2[nH]c(=O)oc(=O)c2c1C`, for which the TGI in the experiment with SNB-19 CNS is above 100 µM; with OVCAR-5 ovarian, above 100 µM; with HOP-62 NSCLC, above 100 µM; with MDA-MB-231 breast it was above 100 µM; with SR leukemia, above 100 µM; in the experiment with UO-31 renal, above 83.3 µM. Moreover, the TGI in the experiment with EKVX NSCLC, with MDA-MB-435, with SF-539 CNS, with ACHN renal, in the experiment on RXF 393 renal and with RPMI-8226 leukemia was above 100 µM throughout. In addition, the TGI in the experiment with MDA-N is above 100 µM; with MCF7 breast it was above 78.9 µM; in the experiment with CCRF-CEM leukemia, above 100 µM; in the experiment with NCI-H460 lung, above 100 µM; in the experiment with OVCAR-4 ovarian it was above 100 µM; in the experiment with HCT-116 colon it was above 100 µM. For the same compound, the TGI in the experiment on OVCAR-3 ovarian and in the experiment on SK-OV-3 ovarian was above 100 µM in each case.

In the case of `CC(C)(C)n1c(=O)n2n(c1=O)Cc1cccc3cccc(c13)C2`, the TGI in the experiment with SNB-19 CNS was above 100 µM; with OVCAR-5 ovarian, 35.1 µM; in the experiment with HOP-62 NSCLC it was 33.2 µM; in the experiment on MDA-MB-231 breast, above 100 µM; in the experiment with SR leukemia, 42.3 µM; in the experiment on UO-31 renal, 53.1 µM. For the same compound, the TGI is above 100 µM with EKVX NSCLC; 62 µM in the experiment with MDA-MB-435; 36.4 µM in the experiment on SF-539 CNS; 44.7 µM in the experiment on ACHN renal; 27.1 µM in the experiment with RXF 393 renal; 71.6 µM with RPMI-8226 leukemia. The TGI in the experiment on MDA-N was determined as 50.8 µM; with MCF7 breast, 92.4 µM; with CCRF-CEM leukemia it was 24.6 µM; with NCI-H460 lung it was 23.9 µM; in the experiment on OVCAR-4 ovarian, 50.3 µM; in the experiment with HCT-116 colon it was 33.8 µM. Further, the figures for the TGI in the experiment with OVCAR-3 ovarian and in the experiment with SK-OV-3 ovarian were 35.1 µM and 93.3 µM, respectively.

In the case of `S=C(NNC1=NCCCCN1)Nc1ccc(Cl)cc1`, the TGI in the experiment on SNB-19 CNS was above 100 µM; in the experiment on OVCAR-5 ovarian it was above 100 µM; in the experiment on HOP-62 NSCLC, 31.7 µM; in the experiment on MDA-MB-231 breast, above 100 µM; with SR leukemia, 60.9 µM; in the experiment on UO-31 renal it was 31.6 µM. Further, the TGI in the experiment on EKVX NSCLC is above 100 µM; in the experiment on MDA-MB-435, above 100 µM; in the experiment on SF-539 CNS, 76.5 µM; in the experiment on ACHN renal, 90.2 µM; in the experiment with RXF 393 renal, above 100 µM; with RPMI-8226 leukemia it was above 100 µM. Further, the TGI in the experiment on MDA-N, with MCF7 breast, in the experiment with CCRF-CEM leukemia, in the experiment with NCI-H460 lung, in the experiment on OVCAR-4 ovarian and in the experiment with HCT-116 colon was above 100 µM throughout. Moreover, the results for the TGI in the experiment on OVCAR-3 ovarian and in the experiment with SK-OV-3 ovarian were above 100 µM and 93.1 µM, respectively.

Turning to `CCN(CC)CCC(=O)c1ccc(Sc2ccc(F)cc2)cc1`, the TGI in the experiment with SNB-19 CNS is 34 µM; in the experiment on OVCAR-5 ovarian it was 39.3 µM; in the experiment with HOP-62 NSCLC, 41.4 µM; in the experiment with MDA-MB-231 breast, 34 µM; with SR leukemia it was 48.6 µM; in the experiment with UO-31 renal, 31.9 µM. Moreover, the TGI in the experiment with EKVX NSCLC stood at 41.8 µM; in the experiment with MDA-MB-435, 32.4 µM; in the experiment with SF-539 CNS, 32.9 µM; with ACHN renal it was 33.2 µM; with RXF 393 renal it was 35.1 µM; in the experiment on RPMI-8226 leukemia, 9.74 µM. Also, the TGI came out at 49 µM in the experiment with MDA-N; 31 µM in the experiment with MCF7 breast; 34 µM in the experiment with CCRF-CEM leukemia; 41.1 µM in the experiment on NCI-H460 lung; 42.9 µM in the experiment on OVCAR-4 ovarian; 33.6 µM with HCT-116 colon. Moreover, the TGI is 40.9 µM with OVCAR-3 ovarian and 45 µM in the experiment with SK-OV-3 ovarian.

With `COc1ccc(OC)c(CSc2ccc(OC)c(OC)c2)c1`, the TGI with SNB-19 CNS, with OVCAR-5 ovarian, in the experiment with HOP-62 NSCLC, in the experiment on MDA-MB-231 breast, with SR leukemia and in the experiment on UO-31 renal was above 100 µM throughout. Moreover, the TGI in the experiment with EKVX NSCLC, with MDA-MB-435, with SF-539 CNS, with ACHN renal, with RXF 393 renal and in the experiment on RPMI-8226 leukemia was above 100 µM each time. Moreover, the TGI with MDA-N, in the experiment on MCF7 breast, with CCRF-CEM leukemia, with NCI-H460 lung, with OVCAR-4 ovarian and with HCT-116 colon was above 100 µM in each case. Besides, the TGI with OVCAR-3 ovarian and in the experiment with SK-OV-3 ovarian was above 100 µM throughout.

Consider `COC(=O)c1c(C)cccc1C1CN=NC12Cc1ccccc1C2=O` (stereo not given), for which the TGI in the experiment on SNB-19 CNS, in the experiment with OVCAR-5 ovarian, in the experiment on HOP-62 NSCLC, in the experiment with MDA-MB-231 breast, with SR leukemia and with UO-31 renal was above 100 µM each time. The TGI in the experiment on EKVX NSCLC, in the experiment with MDA-MB-435, in the experiment on SF-539 CNS, in the experiment with ACHN renal, in the experiment with RXF 393 renal and in the experiment on RPMI-8226 leukemia was above 100 µM throughout. Besides, the TGI in the experiment on MDA-N was above 100 µM; in the experiment with MCF7 breast, above 43.8 µM; in the experiment on CCRF-CEM leukemia, above 100 µM; in the experiment with NCI-H460 lung it was above 100 µM; in the experiment on OVCAR-4 ovarian, above 100 µM; with HCT-116 colon, above 100 µM. Also, the TGI in the experiment on OVCAR-3 ovarian and in the experiment with SK-OV-3 ovarian was above 100 µM throughout.

Take `CCCCCC1CC=CC(=O)O1` (stereo not given): the TGI is 54.1 µM with SNB-19 CNS; 21.4 µM with OVCAR-5 ovarian; 18.5 µM with HOP-62 NSCLC; 24.1 µM in the experiment with MDA-MB-231 breast; 31.6 µM in the experiment with SR leukemia; 24 µM with UO-31 renal. For the same compound, the TGI with EKVX NSCLC came out at 20.6 µM; with MDA-MB-435, 20.2 µM; with SF-539 CNS, 3.83 µM; in the experiment with ACHN renal it was 33 µM; in the experiment with RXF 393 renal, 23.1 µM; in the experiment on RPMI-8226 leukemia, 12.4 µM. Besides, the TGI with MDA-N was determined as 38.2 µM; in the experiment with MCF7 breast it was 40.3 µM; in the experiment on CCRF-CEM leukemia, 19.7 µM; with NCI-H460 lung, 33.6 µM; with OVCAR-4 ovarian it was 13.8 µM; with HCT-116 colon it was 5.83 µM. For the same compound, the TGI with OVCAR-3 ovarian was 31.3 µM; in the experiment on SK-OV-3 ovarian it was 36.9 µM.
